Source: publication PMC3117126 (Journal of medicinal chemistry, 2011)
Counter-ions that a name gives are not always drawn. Blank lines part the entries; values can stand above or below the compound they belong to.

Key:
human P2Y4 receptor [1] = molecular target: T1, human P2Y4 receptor (Homo sapiens, UniProt P51582); settings: cited from earlier work
[2] = Chemical stability: hydrolysis at 37°C and pH 1.5, HPLC; assay type: physicochemical; settings: pH 1.5, 0.2 mg/mL, compared with 1 (UTP)
human P2Y4 receptor [3] = molecular target: T1, human P2Y4 receptor; test: PLC activation; assay type: cell-based; settings: for selectivity for human P2Y4 over P2Y2 and P2Y6 receptors: over both P2Y2 and P2Y6
human P2Y2 receptor = human P2Y2 receptor (Homo sapiens, UniProt P41231); test: PLC activation; assay type: cell-based; settings: for effect at 10 µM, hP2Y2: printed in EC50 column, NE = no effect at 10 µM
Chain of human P2Y2 receptor (P41231 whole entry): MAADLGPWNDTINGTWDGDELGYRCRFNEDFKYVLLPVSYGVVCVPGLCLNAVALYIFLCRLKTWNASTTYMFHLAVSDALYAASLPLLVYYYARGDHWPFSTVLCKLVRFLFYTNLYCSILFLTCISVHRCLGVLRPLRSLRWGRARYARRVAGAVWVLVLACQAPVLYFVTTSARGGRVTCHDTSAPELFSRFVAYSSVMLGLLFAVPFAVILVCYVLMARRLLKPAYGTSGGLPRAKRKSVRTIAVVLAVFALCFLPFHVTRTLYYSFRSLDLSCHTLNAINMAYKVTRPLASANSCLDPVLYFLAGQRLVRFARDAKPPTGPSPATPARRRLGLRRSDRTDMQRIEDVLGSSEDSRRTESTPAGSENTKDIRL

T1 sequence (P51582 whole entry): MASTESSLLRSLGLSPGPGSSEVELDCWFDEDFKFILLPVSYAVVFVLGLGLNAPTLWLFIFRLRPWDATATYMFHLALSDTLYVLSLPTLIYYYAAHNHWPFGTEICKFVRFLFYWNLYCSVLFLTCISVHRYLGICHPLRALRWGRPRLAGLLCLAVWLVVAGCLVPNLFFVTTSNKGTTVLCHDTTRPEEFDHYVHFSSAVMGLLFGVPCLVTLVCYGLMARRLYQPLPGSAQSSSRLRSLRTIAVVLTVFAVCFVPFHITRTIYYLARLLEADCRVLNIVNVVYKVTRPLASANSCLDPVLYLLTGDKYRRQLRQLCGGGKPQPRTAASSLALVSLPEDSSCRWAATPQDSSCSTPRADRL

SMILES: [N-]=[N+]=N[C@@H]1[C@H](O)[C@@H](COP(=O)(O)OP(=O)(O)OP(=O)(O)O)O[C@H]1n1ccc(=O)[nH]c1=O [Compound 3]
selectivity for the P2Y4 receptor in comparison to the P2Y2 receptor (human P2Y4 receptor [1]): 5 fold

SMILES: O=c1[nH]/c(=N\OCCc2ccccc2)ccn1[C@@H]1O[C@H](COP(=O)(O)OP(=O)(O)OP(=O)(O)O)[C@@H](O)[C@H]1O [Compound 15, N^4-Phenylethoxycytidine-5′-triphosphate triethylammonium salt]
selectivity for human P2Y4 over P2Y2 and P2Y6 receptors (human P2Y4 receptor [3]): ≥ 10 fold

SMILES: O=c1[nH]/c(=N\OCCCc2ccccc2)ccn1[C@@H]1O[C@H](COP(=O)(O)OP(=O)(O)OP(=O)(O)O)[C@@H](O)[C@H]1O [Compound 16, N^4-Phenylpropoxycytidine-5′-triphosphate triethylammonium salt]
selectivity for human P2Y4 over P2Y2 and P2Y6 receptors (human P2Y4 receptor [3]): ≥ 10 fold

SMILES: COc1ccc(OP(=O)(O)OP(=O)(O)OP(=O)(O)OP(=O)(O)OC[C@H]2O[C@@H](n3ccc(=O)[nH]c3=O)[C@H](O)[C@@H]2O)cc1 [Compound 22, Uridine-5′-(4-methoxyphenyl)-tetraphosphate triethylammonium salt]
effect at 10 µM, hP2Y2 (human P2Y2 receptor): ≤50% at 10 µM

SMILES: COc1cccc(OP(=O)(O)OP(=O)(O)OP(=O)(O)OP(=O)(O)OC[C@H]2O[C@@H](n3ccc(=O)[nH]c3=O)[C@H](O)[C@@H]2O)c1 [Compound 23, Uridine-5′-(3-methoxyphenyl)-tetraphosphate triethylammonium salt]
effect at 10 µM, hP2Y2 (human P2Y2 receptor): ≤50% at 10 µM

SMILES: O=c1ccn([C@@H]2O[C@H](COP(=O)(O)OP(=O)(O)OP(=O)(O)OP(=O)(O)Oc3ccc([N+](=O)[O-])cc3)[C@@H](O)[C@H]2O)c(=O)[nH]1 [Compound 24, Uridine-5′-(4-nitrophenyl)-tetraphosphate triethylammonium salt]
effect at 10 µM, hP2Y2 (human P2Y2 receptor): abolished activity

SMILES: O=c1ccn([C@@H]2O[C@H](COP(=O)(O)OP(=O)(O)OP(=O)(O)OP(=O)(O)O[C@H]3OC[C@@H](O)[C@H](O)[C@H]3O)[C@@H](O)[C@H]2O)c(=O)[nH]1 [Compound 30, Uridine-5′-xylose-1′-tetraphosphate triethylammonium salt]
reduction in potency at P2Y2 receptor relative to 8 (human P2Y2 receptor; fold less potent than 8): 9 fold

Now from value to compound:

stability at pH 1.5 [2]: less stable at pH 1.5 than 1
SMILES: O=c1ccn([C@@H]2O[C@H](COP(=O)(O)OP(=O)(O)OP(=O)(O)OP(=O)(O)O[C@H]3O[C@H](CO)[C@@H](O)[C@H](O)[C@H]3O)[C@@H](O)[C@H]2O)c(=O)[nH]1 [Compound 8, Up4-[1]glucose, reference compound]

effect at 10 µM, hP2Y2 (human P2Y2 receptor): ≤50% at 10 µM
SMILES: O=c1ccn([C@@H]2O[C@H](COP(=O)(O)OP(=O)(O)C(Cl)(Cl)P(=O)(O)OP(=O)(O)O[C@H]3O[C@H](CO)[C@@H](O)[C@H](O)[C@H]3O)[C@@H](O)[C@H]2O)c(=O)[nH]1 [Compound 26, Uridine-5′-glucose-1′-β,γ-dichloromethylene tetraphosphate triethylammonium salt]

increase in P2Y4 receptor potency relative to Up4-[1]glucose 8 (human P2Y4 receptor [3]; compared with 8): 11 fold
SMILES: O=c1ccn([C@@H]2O[C@H](COP(=O)(O)OP(=O)(O)OP(=O)(O)OP(=O)(O)O[C@H]3O[C@H](CO)[C@@H](O)[C@@H](O)[C@H]3O)[C@@H](O)[C@H]2O)c(=O)[nH]1 [Compound 28, Uridine-5′-allose-1′-tetraphosphate triethylammonium salt]

stability at pH 1.5 [2]: much more labile | selectivity for human P2Y4 over P2Y2 and P2Y6 receptors (human P2Y4 receptor [3]): ≥ 10 fold
SMILES: O=c1ccn([C@@H]2O[C@H](COP(=O)(O)OP(=O)(O)OP(=O)(O)OP(=O)(O)O[C@H]3O[C@H](CO)[C@@H](O)[C@H](F)[C@H]3O)[C@@H](O)[C@H]2O)c(=O)[nH]1 [Compound 34, P^1-(Uridine-5′-)P^4-(3′-deoxy-3′-fluoroglucose-1′-)tetraphosphate triethylammonium salt]
